# In patent US20080194585A1, “Fungicidal Pyrazine Derivatives” (priority 2005, published 2008):
# Marks after values point to notes of the source that are not given here.
# Tests used:
# [1] = tested on: Septoria tritici; assay: Test J: wheat leaf blotch, preventive spray on wheat seedlings; format: in vivo
# Text: A dash (-) indicates no test results.
# [2] = tested on: Puccinia recondita f. sp. tritici; assay: Test K: wheat leaf rust, preventive spray on wheat seedlings
# [3] = tested on: Plasmopara viticola; assay: Test D: grape downy mildew, spray after inoculation of grape seedlings; format: in vivo
# Text: Upon removal, disease ratings were made. […] A dash (-) indicates no test results.
# [4] = tested on: Phytophthora infestans; assay: whole plant or invertebrate; format: in vivo
# [5] = tested on: fusarium graminearium; assay: Test I: wheat head scab, preventive spray on wheat seedlings
# Description: (the causal agent of wheat head scab) and incubated in a saturated atmosphere at 20° C. for 72 h, and then moved to a growth chamber at 22° C. for 5 days, after which disease ratings were made.
# [6] = tested on: Erysiphe graminis f. sp. tritici; assay: Test L: wheat powdery mildew, preventive spray on wheat seedlings
# [7] = tested on: Pythium aphanidermatum; assay: Test A: bluegrass pythium blight, preventive spray on bluegrass seedlings
# [8] = tested on: Rhizoctonia oryzae; assay: Test G: turf brown patch, preventive spray on creeping bent grass seedlings
# Description: (the causal agent of turf brown patch) and incubated in a saturated atmosphere at 27° C. for 24 h, and then moved to a growth chamber at 27° C. for 5 days, after which disease ratings were made.
# [9] = tested on: Colletotrichum orbiculare; assay: Test B: cucumber Colletotrichum anthracnose, preventive spray on cucumber seedlings
# [10] = tested on: Septoria nodorum; assay: Test H: wheat glum blotch, preventive spray on wheat seedlings
# Description: (the causal agent of wheat glum blotch) and incubated in a saturated atmosphere at 20° C. for 48 h, and then moved to a growth chamber at 22° C. for 5 days, after which disease ratings were made.
# [11] = tested on: Sclerotinia sclerotiorum; assay: Test C: cucumber white mold, preventive spray on cucumber seedlings
# [12] = tested on: Botrytis cinerea; assay: Test E: tomato botrytis, preventive spray on tomato seedlings
SMILES,Test J disease control rating ([1]; 40 ppm (*)),Test K disease control rating ([2]; 40 ppm (*)),Test D disease control rating ([3]; 200 ppm),Test F disease control rating ([4]; 200 ppm),Test I disease control rating ([5]; 200 ppm),Test L disease control rating ([6]; 40 ppm (*)),Test A disease control rating ([7]; 200 ppm),Test G disease control rating ([8]; 40 ppm (*)),Test B disease control rating ([9]; 40 ppm (*)),Test H disease control rating ([10]; 40 ppm (*)),Test C disease control rating ([11]; 200 ppm),Test E disease control rating ([12]; 40 ppm (*)),Test D disease control rating ([3]; 40 ppm (*)),Test F disease control rating ([4]; 40 ppm (*)),Test I disease control rating ([5]; 40 ppm (*)),Test A disease control rating ([7]; 40 ppm (*)),Test C disease control rating ([11]; 40 ppm (*)),also measured
CC(C)Cn1c(-c2cc(Br)c3c(c2)OCO3)c(Cl)nc(-n2cncn2)c1=O [compound 115],0* %,0* %,0%,0%,0%,0* %,0%,0* %,0* %,0* %,0%,0* %,–,–,–,–,–,–
CC(C)Cn1c(-c2cc(Cl)cc(Cl)c2)c(Cl)nc(-n2cncn2)c1=O [compound 116],5* %,0* %,0%,53%,0%,0* %,0%,0* %,0* %,0* %,0%,0* %,–,–,–,–,–,–
CC(C)Cn1c(-c2ccc(C(F)(F)F)cc2F)c(Cl)nc(-n2cncn2)c1=O [compound 117],2* %,0* %,0%,0%,83%,0* %,0%,0* %,0* %,0* %,0%,0* %,–,–,–,–,–,–
CC(C)Cn1c(-c2ccc(Cl)cc2Cl)c(Cl)nc(-n2cncn2)c1=O [compound 118],–,–,0%,16%,81%,–,0%,–,–,–,98%,–,–,–,–,–,–,Test J disease control rating ([1]; 200 ppm): 100%; Test K disease control rating ([2]; 200 ppm): 91%; Test L disease control rating ([6]; 200 ppm): 0%; Test G disease control rating ([8]; 200 ppm): 71%; Test B disease control rating ([9]; 200 ppm): 96%; Test H disease control rating ([10]; 200 ppm): 92%; Test E disease control rating ([12]; 200 ppm): 99%
CC(C)Cn1c(-c2ccc3ccccc3c2)c(Cl)nc(-n2cncn2)c1=O [compound 119],68* %,0* %,0%,0%,76%,0* %,0%,0* %,0* %,0* %,0%,0* %,–,–,–,–,–,–
CC(C)Cn1c(-c2c(Cl)ccc(Cl)c2Cl)c(Cl)nc(-n2cncn2)c1=O [compound 120],91* %,55* %,0%,0%,86%,0* %,0%,0* %,0* %,64* %,93%,99* %,–,–,–,–,–,–
COC(=O)Cn1c(-c2c(F)cccc2F)c(Cl)nc(-n2cccn2)c1=O [compound 122],7* %,28* %,–,–,–,0* %,–,16* %,0* %,0* %,–,49* %,58* %,0* %,0* %,0* %,0* %,–
COC(=O)Cn1c(-c2c(F)cccc2F)c(Cl)nc(-n2cncn2)c1=O [compound 123],19* %,0* %,–,–,–,0* %,–,0* %,0* %,0* %,–,0* %,0* %,0* %,0* %,0* %,0* %,–
O=c1c(-n2cccn2)nc(Cl)c(-c2c(F)cccc2F)n1CCCl [compound 124],100* %,100* %,–,–,–,0* %,–,21* %,0* %,100* %,–,99* %,0* %,0* %,0* %,0* %,0* %,–
O=c1c(-n2cncn2)nc(Cl)c(-c2c(F)cccc2F)n1CCCl [compound 125],71* %,55* %,–,–,–,0* %,–,0* %,0* %,0* %,–,0* %,0* %,0* %,0* %,0* %,0* %,–
CS(=O)(=O)CCn1c(-c2c(F)cccc2F)c(Cl)nc(-n2cccn2)c1=O [compound 126],19* %,0* %,–,–,–,0* %,–,0* %,0* %,0* %,–,0* %,0* %,0* %,0* %,0* %,0* %,–
CS(=O)(=O)CCn1c(-c2c(F)cccc2F)c(Cl)nc(-n2cncn2)c1=O [compound 127],–,0* %,–,–,–,0* %,–,0* %,0* %,0* %,–,0* %,0* %,0* %,0* %,0* %,0* %,Test J disease control rating ([1]; 200 ppm): 16%
CC(C)Cn1c(Cc2ccccc2)c(Cl)nc(-n2cncn2)c1=O [compound 128],0* %,0* %,–,–,–,0* %,–,0* %,0* %,0* %,–,0* %,0* %,0* %,0* %,0* %,0* %,–
CC(C)Cn1c(-c2cccc3ccccc23)c(Cl)nc(-n2cncn2)c1=O [compound 129],19* %,0* %,–,–,–,0* %,–,0* %,0* %,0* %,–,0* %,0* %,0* %,0* %,0* %,0* %,–
CC(C)Cn1c(Cc2ccccc2)c(Cl)nc(-n2cccn2)c1=O [compound 130],16* %,0* %,–,–,–,0* %,–,0* %,0* %,0* %,–,0* %,0* %,0* %,0* %,0* %,0* %,–
CC(C)Cn1c(-c2cccc3ccccc23)c(Cl)nc(-n2cccn2)c1=O [compound 131],52* %,0* %,–,–,–,0* %,–,0* %,0* %,0* %,–,0* %,0* %,0* %,0* %,0* %,0* %,–
